Experimental data published in US20250127918A1, “SITE-SELECTIVE CONJUGATION OF A PHARMACEUTICAL AGENT TO AN ANTIBODY USING AN AFFINITY PEPTIDE” (priority 2023, published 2025).
pKd: −log10 of the molar value.

What was measured:
Trastuzumab = target: T1, Trastuzumab (Homo sapiens, UniProt P01857, D239E/L241M); test: Bioconjugation handle / GLP1 transfer to trastuzumab, analyzed by Q-ToF LC-MS; type: biochemical
T1 construct: purchased Syd Labs Inc; MedChemExpress LLC; Bio X Cell
Description: The conversion rate for each reaction was calculated by one of the following methods. Determination by LC-MS: Reported yields based on LC-MS spectra were determined by extracting the total ion current (TIC) spectra of all protein-containing species in the chromatogram utilizing Agilent MassHunter 6.0 software with BioConfirm package. These extracted chromatograms were deconvoluted utilizing a maximum entropy algorithm and abundance of each species determined using total ion count.
A reaction solution corresponding to 9.0 μg of IgG was taken into a PCR tube and diluted with Tris buffer (100 mM, pH 8.1) to a final volume of 6 μL. […] Afterward, DTT (200 mM in water, 2 μL) was added, and the mixture was further incubated at 37° C. for 1 hour. Finally, the solution was diluted to a volume of 40 μL with a mixture of water and acetonitrile (95:5), and 8 μL of the diluted solution was injected into LC-MS.
Reactions were performed on a 20 μL scale using 0.2 mL PCR tubes (FIG. 61). First, the electrophile-attached Z33 peptide reagent was dissolved in water to prepare a 2 mg/mL solution. Trastuzumab (MedChemExpress LLC. or Bio X Cell), electrophile-attached Z33 peptide reagent (2 mg/mL), and buffer were added to achieve final concentrations of 10 μM, 200 μM, and values listed in the following table, respectively. If the HEPES was used as a buffer, NaCl solution (4M, 1 uL) was added to the reaction mixture. […] The resulting reaction solution was quenched with a 100 mM glycine buffer of 100 mM Tris buffer and analyzed by LC-MS. Sample preparation for LC-MS analysis was performed in the same manner previously described. […] Therefore, a post-processing step was implemented to remove electrophiles using an Amicon® filter. The reaction mixture was diluted to 200 μL with citrate buffer (100 mM, pH 2.7) and filtered through an Amicon® filter (0.5 mL, 50KMWCO) at 14000 rcf for 7 minutes. […]
Reactions were performed on a 20 μL scale using 0.2 mL PCR tubes (FIG. 61). […] The resulting reaction solution was quenched with a 100 mM Tris buffer and analyzed by LC-MS (FIG. 53, Table 8).

Fc fragment of IgG1 = test: Binding affinity of Z33 and variants to IgG Fc
Dupilumab (hIgG4) = test: Small bioconjugation handle installation to other IgGs (Q-ToF LC-MS); type: biochemical, human; settings: 20 equivalents, room temperature
Description: Reactions were performed on a 10 μL scale using 0.2 mL PCR tubes (FIG. 64). First, the electrophile-attached Z33 peptide reagent was dissolved in water to prepare a 2 mg/mL solution. IgG (human WN1 (prepared as previously described (ChemBioChem, 19, 2039-2044 (2018)), denosumab (Invitrogen), dupilumab (Invitrogen), or mouse IgG1 (Invitrogen, subtype controlled)), electrophile-attached Z33 peptide reagent (2 mg/mL), HEPES buffer (pH 8.5), and NaCl solution were added to achieve final concentrations of 5 μM, 100 μM, 100 mM, and 200 mM. The contents were mixed using a 5 μL pipette and incubated at room temperature in the dark for 24 hours. The resulting reaction solution was quenched with a 100 mM Tris buffer and analyzed by LC-MS (FIGS. 53A to 53D, Table 10). Sample preparation for LC-MS analysis was performed in the same manner as previously described.
Reactions were performed on a 10 μL scale using 0.2 mL PCR tubes. First, the electrophile-attached Z33 peptide reagent was dissolved in water to prepare a 2 mg/mL solution. Denosumab (Invitrogen), dupilumab (Invitrogen), or mouse IgG1 (Invitrogen, subtype controlled)), electrophile-attached Z33 peptide reagent (2 mg/mL), HEPES buffer (pH 8.5), and NaCl solution were added to achieve final concentrations of 5 μM, 100 μM, 100 mM, and 200 mM. […] The resulting reaction solution was quenched with a 100 mM Tris buffer and analyzed by LC-MS. […]

Denosumab (hIgG2) = test: as above; type: biochemical, human; settings: 20 equivalents, room temperature, HEPES pH 8.5
Description: (§1) First, the electrophile-attached Z33 peptide reagent was dissolved in water to prepare a 2 mg/mL solution.
as §1

FNMQQQRRFYEALHD PNLNHcyEQRNAKIKSI RDD [PEL-21]
Light chain total conversion (Trastuzumab; 20 equivalents, PBS, room temperature, 24 h): 12%
Light chains modified with the electrophile (Trastuzumab; hIgG1-2, excess (20 eq.) reagent): less than 2%
Modifications incorporated into the heavy chain of Tmab (Trastuzumab; hIgG1 trastuzumab (1 eq.), peptide 20 eq., after 24 h): up to 99%
pKd (Fc fragment of IgG1): ~7.22
Light chain total conversion (Dupilumab (hIgG4); HEPES pH 8.5, first column so headed): 13%
Light chain total conversion (Dupilumab (hIgG4); HEPES pH 8.5, second column so headed): 96%
Light chain total conversion (Denosumab (hIgG2)): 1%
